Paper PMC6683251, “Flavanol Bioavailability in Two Cocoa Products with Different Phenolic Content. A Comparative Study in Humans” (Nutrients, 2019)

Test: Plasma nutrikinetics of flavanol metabolites after a single serving of soluble cocoa product (HPLC-ESI-QToF-MS)
Assay type: in vivo, human
Conditions: both sexes, oral, 19.8 mg; human plasma 0-8 h, after CC (19.80 mg flavanols), mean ± SD, n = 13; read-out: AUC
Description: The study was carried out in thirteen healthy subjects (3 men and 10 women); the mens’ average age and body mass index were 26.67 ± 3.21 year and 22.47 ± 2.97 kg/m^2, respectively, and womens’ were 32.60 ± 9.85 year and 23.36 ± 3.73 kg/m^2, respectively. They were non-smoker, non-vegetarian, non-pregnant women, who were not taking any medication or nutritional supplements, and were not suffering from any chronic pathology or gastrointestinal disorder. The sample size was estimated attending to similar previous bioavailability studies. The volunteers gave their informed consent prior to participation.
The present randomized, single-blind study was carried out at the Human Nutrition Unit (HNU) of the Institute of Food Science, Technology and Nutrition (ICTAN). Volunteers attended the HNU on two days, separated by two weeks. Three days previous to each visit, participants were instructed not to consume cocoa products (chocolate, soluble cocoa, etc.), juices, tea, wine, grape must, oranges, tangerines, apples, grapes, strawberries or other berries, beets, onions, soybeans and soy derivatives. In addition, volunteers were asked to complete a 24 h food intake recall the day before they attended the HNU in order to monitor any possible food restriction incompliance.
On each intervention day, volunteers arrived at the HNU after an overnight fast. Prior to the intake of the soluble cocoa product, a nurse inserted a cannula in the cubital vein of the non-prevailing arm of the volunteers and blood samples were collected into EDTA-coated tubes at baseline (t = 0) and 0.5, 1, 2, 3, 4, 6, and 8 h after consuming the corresponding cocoa product. The soluble cocoa products, either 15 g of CC or 25 g CC-PP, were dissolved in 200 mL of semi-skimmed milk following manufacturer’s preparation instructions. Plasma was separated by centrifugation (10 min, 3000 rpm, 4 °C) and stored at −80 °C until further analysis. Urine samples were collected at different time intervals (t = −2–0, 0–4, 4–8, 8–12, and 12–24 h) in urine collection flasks that contained 0.5 g of ascorbic acid as preservative and were aliquoted and frozen at −20 °C until analysis. A polyphenol-free breakfast, lunch and afternoon snack were provided 2 h, 4 h, and 8 h after consumption of cocoa products, and water and isotonic beverages were available ad libitum.
A liquid–liquid extraction and protein precipitation with acetonitrile was used to isolate metabolites from plasma. A 1 mL defrosted plasma sample was mixed with 50 μL of ascorbic acid (0.2 g/mL). After vortexing the aqueous mixture, it was added drop wise to 750 μL of cold acetonitrile and vortexed for 2 min before centrifuging at 12,000 rpm for 10 min at 4 °C. The supernatant was separated, and the pellet was re-extracted twice more following the same procedure. Supernatants were combined and reduced to dryness under a stream of nitrogen at 30 °C. The dried samples were resuspended in 150 μL of aqueous formic acid (0.1%) containing 10% acetonitrile acidified with 0.1% formic acid and centrifuged at 4 °C for 20 min at 14,000 rpm. The final supernatant was collected, filtered (0.45 μm pore-size, cellulose-acetate membrane filters, Albet, Dassel (Germany)) and 30 μL were analyzed by high-performance liquid chromatography coupled to electrospray ionisation and quadrupole time-of-flight mass spectrometry (HPLC-ESI-QToF-MS).
Analyses were performed on an Agilent 1200 series LC system coupled to an Agilent 6530A Accurate-Mass Quadrupole Time-Of-Flight (Q-ToF) with ESI-Jet Stream Technology (Agilent Technologies). Compounds were separated on a reverse-phase Ascentis Express C18 (15 cm × 3 mm, […]) column (Sigma-Aldrich Química, Madrid) preceded by a Supelco 55215-U guard column at 30 °C. […]

SMILES | AUC
O=C1CCC(Cc2ccc(O)c(O)c2)O1 (centres unmarked) [DHPVL, 5-(3′,4′-Dihydroxyphenyl)-γ-valerolactone] | 0.124 ± 0.073 µM·h
O=C(O)C1OC(Oc2cc(C3Oc4cc(O)cc(O)c4CC3O)ccc2O)C(O)C(O)C1O (centres unmarked) [Epicatechin-3′-glucuronide] | 0.072 ± 0.028 µM·h
O=S(=O)(O)Oc1cc([C@H]2Oc3cc(O)cc(O)c3C[C@H]2O)ccc1O [Epicatechin-3′-sulfate] | 0.101 ± 0.023 µM·h

Same assay, conditions: both sexes, oral, 19.8 mg; human plasma, after CC (19.80 mg flavanols), mean ± SD, n = 13; read-out: Tmax

SMILES | Tmax
O=C1CCC(Cc2ccc(O)c(O)c2)O1 (centres unmarked) [DHPVL, 5-(3′,4′-Dihydroxyphenyl)-γ-valerolactone] | 6 ± 1.6 h
O=C(O)C1OC(Oc2cc(C3Oc4cc(O)cc(O)c4CC3O)ccc2O)C(O)C(O)C1O (centres unmarked) [Epicatechin-3′-glucuronide] | 1.5 ± 0.5 h
O=S(=O)(O)Oc1cc([C@H]2Oc3cc(O)cc(O)c3C[C@H]2O)ccc1O [Epicatechin-3′-sulfate] | 1 ± 0.1 h

Same assay, conditions: both sexes, oral; human plasma 0-8 h, after CC-PP (68.25 mg flavanols), mean ± SD, n = 13; read-out: AUC

SMILES | AUC
O=C1CCC(Cc2ccc(O)c(O)c2)O1 (centres unmarked) [DHPVL, 5-(3′,4′-Dihydroxyphenyl)-γ-valerolactone] | 0.192 ± 0.029 µM·h
O=C(O)C1OC(Oc2cc(C3Oc4cc(O)cc(O)c4CC3O)ccc2O)C(O)C(O)C1O (centres unmarked) [Epicatechin-3′-glucuronide] | 0.11 ± 0.066 µM·h
O=S(=O)(O)Oc1cc([C@H]2Oc3cc(O)cc(O)c3C[C@H]2O)ccc1O [Epicatechin-3′-sulfate] | 0.109 ± 0.076 µM·h

Same assay, conditions: both sexes, oral; human plasma, after CC (15 g in 200 mL semi-skimmed milk, 19.80 mg flavanols), mean ± SD, n = 13; read-out: Cmax

SMILES | Cmax
O=C1CCC(Cc2ccc(O)c(O)c2)O1 (centres unmarked) [DHPVL, 5-(3′,4′-Dihydroxyphenyl)-γ-valerolactone] | 35 ± 8 nM
O=C(O)C1OC(Oc2cc(C3Oc4cc(O)cc(O)c4CC3O)ccc2O)C(O)C(O)C1O (centres unmarked) [Epicatechin-3′-glucuronide] | 25 ± 1 nM
O=S(=O)(O)Oc1cc([C@H]2Oc3cc(O)cc(O)c3C[C@H]2O)ccc1O [Epicatechin-3′-sulfate] | 26 ± 3 nM

Same assay, conditions: both sexes, oral; human plasma, after CC-PP (68.25 mg flavanols), mean ± SD, n = 13; read-out: Tmax

SMILES | Tmax
O=C1CCC(Cc2ccc(O)c(O)c2)O1 (centres unmarked) [DHPVL, 5-(3′,4′-Dihydroxyphenyl)-γ-valerolactone] | 5.5 ± 1.4 h
O=C(O)C1OC(Oc2cc(C3Oc4cc(O)cc(O)c4CC3O)ccc2O)C(O)C(O)C1O (centres unmarked) [Epicatechin-3′-glucuronide] | 1.4 ± 0.8 h
O=S(=O)(O)Oc1cc([C@H]2Oc3cc(O)cc(O)c3C[C@H]2O)ccc1O [Epicatechin-3′-sulfate] | 1.2 ± 0.5 h

Same assay, conditions: both sexes, oral; human plasma, after CC-PP (25 g in 200 mL semi-skimmed milk, 68.25 mg flavanols), mean ± SD, n = 13; read-out: Cmax

SMILES | Cmax
O=C1CCC(Cc2ccc(O)c(O)c2)O1 (centres unmarked) [DHPVL, 5-(3′,4′-Dihydroxyphenyl)-γ-valerolactone] | 37 ± 7 nM
O=C(O)C1OC(Oc2cc(C3Oc4cc(O)cc(O)c4CC3O)ccc2O)C(O)C(O)C1O (centres unmarked) [Epicatechin-3′-glucuronide] | 37 ± 1 nM
O=S(=O)(O)Oc1cc([C@H]2Oc3cc(O)cc(O)c3C[C@H]2O)ccc1O [Epicatechin-3′-sulfate] | 42 ± 4 nM

Test: Urinary excretion of flavanol metabolites (0-24 h) after a single serving of soluble cocoa product (HPLC-ESI-QToF-MS)
Assay type: in vivo, human
Conditions: CC intervention, basal urine (−2–0 h, before intake), mean ± SD, n = 13
Method in brief: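 Fasted women drank 15 g CC or 25 g CC-PP soluble cocoa in 200 mL semi-skimmed milk, in a randomized, single-blind design with visits two weeks apart and a 3-day low-polyphenol diet beforehand. Excreted amounts were normalized to urine volume per interval, quantified against standards or precursor calibration curves.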

SMILES | Excreted in urine, Basal
O=C1CCC(Cc2ccc(O)c(O)c2)O1 (centres unmarked) [DHPVL, 5-(3′,4′-Dihydroxyphenyl)-γ-valerolactone] | <L.Q.

Same assay, conditions: CC-PP intervention, basal urine (−2–0 h, before intake), mean ± SD, n = 13

SMILES | Excreted in urine, Basal
O=C1CCC(Cc2ccc(O)c(O)c2)O1 (centres unmarked) [DHPVL, 5-(3′,4′-Dihydroxyphenyl)-γ-valerolactone] | <L.Q.

Same assay, conditions: after CC (19.80 mg flavanols), 24 h urine, mean ± SD, n = 13

SMILES | Excreted in urine, Total
O=C1CCC(Cc2ccc(O)c(O)c2)O1 (centres unmarked) [DHPVL, 5-(3′,4′-Dihydroxyphenyl)-γ-valerolactone] | 0.146 ± 0.032 µmol
O=C(O)C1OC(Oc2cc(C3Oc4cc(O)cc(O)c4CC3O)ccc2O)C(O)C(O)C1O (centres unmarked) [Epicatechin-3′-glucuronide] | 0.622 ± 0.130 µmol
O=S(=O)(O)Oc1cc([C@H]2Oc3cc(O)cc(O)c3C[C@H]2O)ccc1O [Epicatechin-3′-sulfate] | 2.417 ± 0.439 µmol

Same assay, conditions: after CC (19.80 mg flavanols), mean ± SD, n = 13

SMILES | Excreted in urine, 0–4 h | Excreted in urine, 4–8 h | Excreted in urine, 8–12 h | Excreted in urine, 12–24 h
O=C1CCC(Cc2ccc(O)c(O)c2)O1 (centres unmarked) [DHPVL, 5-(3′,4′-Dihydroxyphenyl)-γ-valerolactone] | <L.Q. | 0.146 ± 0.032 µmol | <L.Q. | <L.Q.
O=C(O)C1OC(Oc2cc(C3Oc4cc(O)cc(O)c4CC3O)ccc2O)C(O)C(O)C1O (centres unmarked) [Epicatechin-3′-glucuronide] | 0.355 ± 0.071 µmol | 0.267 ± 0.059 µmol | <L.Q. | <L.Q.
O=S(=O)(O)Oc1cc([C@H]2Oc3cc(O)cc(O)c3C[C@H]2O)ccc1O [Epicatechin-3′-sulfate] | 1.323 ± 0.236 µmol | 1.018 ± 0.178 µmol | 0.076 ± 0.025 µmol | <L.Q.

Same assay, conditions: after CC-PP (68.25 mg flavanols), 24 h urine, mean ± SD, n = 13

SMILES | Excreted in urine, Total
O=C1CCC(Cc2ccc(O)c(O)c2)O1 (centres unmarked) [DHPVL, 5-(3′,4′-Dihydroxyphenyl)-γ-valerolactone] | 1.084 ± 0.199 µmol
O=C(O)C1OC(Oc2cc(C3Oc4cc(O)cc(O)c4CC3O)ccc2O)C(O)C(O)C1O (centres unmarked) [Epicatechin-3′-glucuronide] | 1.653 ± 0.462 µmol
O=S(=O)(O)Oc1cc([C@H]2Oc3cc(O)cc(O)c3C[C@H]2O)ccc1O [Epicatechin-3′-sulfate] | 7.357 ± 1.523 µmol

Same assay, conditions: after CC-PP (68.25 mg flavanols), mean ± SD, n = 13

SMILES | Excreted in urine, 0–4 h | Excreted in urine, 4–8 h | Excreted in urine, 8–12 h | Excreted in urine, 12–24 h
O=C1CCC(Cc2ccc(O)c(O)c2)O1 (centres unmarked) [DHPVL, 5-(3′,4′-Dihydroxyphenyl)-γ-valerolactone] | <L.Q. | 0.628 ± 0.087 µmol | 0.174 ± 0.029 µmol | 0.282 ± 0.082 µmol
O=C(O)C1OC(Oc2cc(C3Oc4cc(O)cc(O)c4CC3O)ccc2O)C(O)C(O)C1O (centres unmarked) [Epicatechin-3′-glucuronide] | 0.958 ± 0.272 µmol | 0.695 ± 0.190 µmol | <L.Q. | <L.Q.
O=S(=O)(O)Oc1cc([C@H]2Oc3cc(O)cc(O)c3C[C@H]2O)ccc1O [Epicatechin-3′-sulfate] | 3.627 ± 0.797 µmol | 3.572 ± 0.662 µmol | 0.158 ± 0.038 µmol | <L.Q.
